Source: PubChem BioAssay (NCI)
Several values for one entry are separate records, joined by “and”; a condition that tells them apart may be missing. Equal entries are not always repeated.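 Step 1: Grow cells in 96-well plates. Step 2: Expose to compound for 48 hours at 5 concentrations. Step 3: Interpolate endpoints linearly; if unreached, use highest concentration. Abbreviation: GI50, concentration required for 50% inhibition of growth. TGI marks complete inhibition of growth.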

How the values were obtained:
Assay in all cases: NCI anticancer screen, dose series, 48 h
[1] = system: A549 NSCLC
[2] = system: COLO 205 colon
[3] = system: HCT-116 colon
[4] = system: MCF7 breast
[5] = system: MOLT-4 leukemia
[6] = system: NCI-H23 lung
[7] = system: NCI/ADR-RES ovarian
[8] = system: OVCAR-5 ovarian
[9] = system: OVCAR-8 ovarian
[10] = system: SN12C renal

SMILES: CCCCn1c(C)c2c(c1C)C(=O)N(CC(O)CN1CCc3ccccc3C1)C2=O (configuration not stated)
- TGI [1]: > 100 µM
- TGI [2]: > 100 µM
- TGI [3]: > 100 µM
- TGI [4]: > 100 µM
- TGI [5]: > 100 µM
- TGI [6]: > 100 µM
- TGI [7]: > 100 µM
- TGI [8]: > 100 µM
- TGI [9]: > 100 µM
- TGI [10]: > 100 µM

SMILES: CCOC(=O)c1cc(C2(O)CCN(CC(C)CC)C2=O)c(-c2cc(C)no2)[nH]1 (configuration not stated)
- TGI [1]: > 100 µM
- TGI [2]: > 100 µM
- TGI [3]: > 100 µM
- TGI [4]: > 100 µM
- TGI [5]: > 100 µM
- TGI [6]: > 100 µM
- TGI [7]: > 100 µM
- TGI [8]: > 100 µM
- TGI [9]: > 100 µM
- TGI [10]: > 100 µM

SMILES: CC(C)C1=C(Cc2ccccc2)C(=O)O/C1=C\c1cc(Cl)c(O)c(Cl)c1
- TGI [1]: 50.5 µM
- TGI [2]: 35.3 µM
- TGI [3]: 34.8 µM
- TGI [4]: 83.4 µM
- TGI [5]: 60.7 µM
- TGI [6]: 32.9 µM
- TGI [7]: 52.3 µM
- TGI [8]: 43.7 µM
- TGI [9]: 42.4 µM
- TGI [10]: 35.6 µM

SMILES: COc1ccc(OC)c(N2C(=O)CSC2c2cc(OC)c(OC)c(OC)c2)c1 (configuration not stated)
- TGI [1]: > 100 µM
- TGI [2]: > 100 µM
- TGI [3]: > 100 µM
- TGI [4]: > 100 µM
- TGI [5]: > 100 µM
- TGI [6]: > 100 µM
- TGI [7]: > 100 µM
- TGI [8]: > 100 µM
- TGI [9]: > 100 µM
- TGI [10]: > 100 µM

SMILES: O=C(CCc1cc(O)cc(O)c1)NCCc1cc(O)cc(O)c1
- TGI [1]: > 100 µM
- TGI [2]: > 100 µM
- TGI [3]: > 100 µM
- TGI [4]: > 100 µM
- TGI [5]: > 100 µM
- TGI [6]: > 100 µM
- TGI [7]: > 100 µM
- TGI [8]: > 100 µM
- TGI [9]: > 100 µM
- TGI [10]: > 100 µM

SMILES: CCCC(O)C(NC(=O)CCl)C(=O)O (configuration not stated)
- TGI [1]: > 100 µM
- TGI [2]: > 100 µM
- TGI [3]: > 100 µM
- TGI [4]: > 100 µM
- TGI [5]: > 100 µM
- TGI [6]: > 100 µM
- TGI [7]: > 100 µM
- TGI [8]: > 100 µM
- TGI [9]: > 100 µM
- TGI [10]: > 100 µM

SMILES: CCOC(=O)c1ccc(C(=O)/C(C#N)=C2\CCCN2C)[nH]1
- TGI [1]: > 100 µM
- TGI [2]: > 100 µM
- TGI [3]: > 100 µM
- TGI [4]: > 100 µM
- TGI [5]: > 100 µM
- TGI [6]: > 100 µM
- TGI [7]: > 100 µM
- TGI [8]: > 100 µM
- TGI [9]: > 100 µM
- TGI [10]: > 100 µM

SMILES: CC(NNC(=O)CC(=O)N(C(=O)c1ccccc1)c1ccc(Cl)cc1)c1cc2ccccc2oc1=O (configuration not stated)
- TGI [1]: > 10 µM
- TGI [2]: > 10 µM
- TGI [3]: > 10 µM
- TGI [4]: > 10 µM
- TGI [5]: > 10 µM
- TGI [6]: > 10 µM
- TGI [7]: > 10 µM
- TGI [8]: > 10 µM
- TGI [9]: > 10 µM
- TGI [10]: > 10 µM

SMILES: CCCCCC(/C=C/C1CCC(=O)C1CC#C[Si](C)(C)C)OCc1ccccc1 (configuration not stated)
- TGI [1]: 70.7 µM
- TGI [2]: 39.3 µM
- TGI [3]: 34.9 µM
- TGI [4]: 44 µM
- TGI [5]: > 68.9 µM
- TGI [6]: 73.6 µM
- TGI [7]: 41.8 µM
- TGI [8]: 39.5 µM
- TGI [9]: 31.1 µM
- TGI [10]: 39 µM

SMILES: CC(CCC#N)(CCC#N)C(=O)CC(O)(C(F)(F)F)C(F)(F)F
- TGI [1]: 30.1 µM
- TGI [2]: 4.9 µM
- TGI [3]: 7.57 µM
- TGI [4]: 21.2 µM
- TGI [5]: 2.8 µM
- TGI [6]: 19.6 µM
- TGI [7]: 22.7 µM
- TGI [8]: 32.4 µM
- TGI [9]: 16.6 µM
- TGI [10]: 23.5 µM

SMILES: O=P(O)(Cc1ccccc1)c1ccccc1-c1ccccc1
- TGI [1]: > 100 µM
- TGI [2]: > 100 µM
- TGI [3]: > 100 µM
- TGI [4]: > 100 µM
- TGI [5]: > 100 µM
- TGI [6]: > 100 µM
- TGI [7]: > 100 µM
- TGI [8]: > 100 µM
- TGI [9]: > 100 µM
- TGI [10]: > 100 µM

SMILES: COc1ccc(CN(Cc2ccc(OC)cc2)C(=O)CC2(O)C=CCC2)cc1 (configuration not stated)
- TGI [1]: > 100 µM
- TGI [2]: > 100 µM
- TGI [3]: > 100 µM
- TGI [4]: > 100 µM
- TGI [5]: > 100 µM
- TGI [6]: > 100 µM
- TGI [7]: > 100 µM
- TGI [8]: > 100 µM
- TGI [9]: > 100 µM
- TGI [10]: > 100 µM

SMILES: CC12CCC3C(CCC4=CC(O)CCC43C=O)C1(O)CCC2c1ccc(=O)oc1 (configuration not stated)
- GI50 [1]: 4.52 nM
- TGI [1]: 0.02 µM
- GI50 [2]: 50 nM
- TGI [2]: 0.0596 µM and 0.0909 µM
- GI50 [3]: 4.53 nM
- TGI [3]: 0.0327 µM and 0.0583 µM
- GI50 [4]: 4.03 nM
- TGI [4]: 0.0209 µM and 0.0721 µM
- GI50 [5]: 12.9 nM
- TGI [5]: 0.0401 µM
- TGI [6]: 0.0151 µM
- GI50 [7]: 50 nM
- TGI [7]: 0.196 µM and 0.0533 µM
- GI50 [8]: 5.11 nM
- GI50 [9]: 50 nM
- TGI [9]: 0.0532 µM and 0.0526 µM
- GI50 [10]: 50 nM

SMILES: CC[C@]1(Cc2ccc(OC)c(OC)c2)[C@@H]2C[C@@H](C3OCCO3)ON2O[C@H](OC2CCCC2(c2ccccc2)c2ccccc2)[C@@H]1OC(C)=O (some centres not stated)
- TGI [1]: 79.5 µM
- TGI [2]: 69.3 µM
- TGI [3]: 50.9 µM
- TGI [4]: 41.1 µM
- TGI [5]: 29 µM
- TGI [6]: 43.4 µM
- TGI [7]: 53.9 µM
- TGI [8]: 36 µM
- TGI [9]: 46.4 µM
- TGI [10]: > 100 µM

SMILES: CN(C)/C=N/n1c2ccccc2c2ccccc21
- TGI [1]: > 100 µM
- TGI [2]: > 100 µM
- TGI [3]: > 100 µM
- TGI [4]: > 100 µM
- TGI [5]: > 100 µM
- TGI [6]: > 100 µM
- TGI [7]: > 100 µM
- TGI [8]: > 100 µM
- TGI [9]: > 100 µM
- TGI [10]: > 100 µM

SMILES: COc1cc(/C=C/C(=O)O)ccc1C(=O)OCc1ccccc1
- TGI [1]: > 100 µM
- TGI [2]: > 100 µM
- TGI [3]: > 100 µM
- TGI [4]: > 100 µM
- TGI [5]: > 100 µM
- TGI [6]: > 100 µM
- TGI [7]: > 100 µM
- TGI [8]: > 100 µM
- TGI [9]: > 100 µM
- TGI [10]: > 100 µM

SMILES: CCO/C=N/NC(=O)CSc1nc2ccc(I)cc2c(=O)n1Cc1ccccc1
- TGI [1]: > 100 µM
- TGI [2]: > 100 µM
- TGI [3]: > 100 µM
- TGI [4]: > 100 µM
- TGI [5]: > 100 µM
- TGI [6]: > 100 µM
- TGI [7]: > 100 µM
- TGI [8]: > 100 µM
- TGI [9]: > 100 µM
- TGI [10]: > 100 µM
